Common to all, as to format: functional
In one test the test system is HCT-116. The test is described as follows: Antiproliferative activity against human HCT116 cells assessed as inhibition of cell viability at 10 uM after 48 hrs by MTT assay relative to control.
The subject of another test is MDA-MB-231. Put plainly: Antiproliferative activity against human MDA-MB-231 cells assessed as inhibition of cell viability at 10 uM after 48 hrs by MTT assay relative to control.
In the next test the test system is L3.6pl. The test is described as follows: Antiproliferative activity against human L3.6 cells assessed as inhibition of cell viability at 10 uM after 48 hrs by MTT assay relative to control.
Another test relates to SW480. The test is described as follows: Antiproliferative activity against human SW480 cells assessed as inhibition of cell viability at 10 uM after 48 hrs by MTT assay relative to control.

Molecules are shown by their SMILES.

As for `COc1ccc(NC(=O)c2ccc(Cl)c(S(N)(=O)=O)c2)cc1`, the inhibition at 10 µM is 20.2% in the test on HCT-116, 30.9% in the test with MDA-MB-231, 22.8% in the test on L3.6pl and 31.9% with SW480.

On to `C=CC(=O)NS(=O)(=O)c1cc(C(=O)Nc2cc(OC)c(OC)c(OC)c2)ccc1Cl`, for which the inhibition at 10 µM is 24.2% in the test on HCT-116, 2.82% with MDA-MB-231, -12.9% in the test with L3.6pl and 28.9% in the test with SW480.

Turning to `C/C=C/C(=O)NS(=O)(=O)c1cc(C(=O)Nc2cc(OC)c(OC)c(OC)c2)ccc1Cl`, the inhibition at 10 µM amounted to 29.3% in the test with HCT-116, 18.4% with MDA-MB-231, 11.7% in the test on L3.6pl and 24.6% with SW480.

With `COc1ccc(C(=O)NS(=O)(=O)c2cc(C(=O)Nc3cc(OC)c(OC)c(OC)c3)ccc2Cl)cc1`, the inhibition at 10 µM in the test with HCT-116 was determined as 4.8%; in the test with MDA-MB-231 it was 13.1%; in the test on L3.6pl it was 18.3%; with SW480, 20.1%.

Take `COc1cc(NC(=O)c2ccc(Cl)c(S(=O)(=O)NC(=O)c3ccc(Cl)nc3)c2)cc(OC)c1OC`: the inhibition at 10 µM was -9.17% with HCT-116, 5.01% in the test on MDA-MB-231, -15.7% in the test on L3.6pl and 8.11% in the test on SW480.

For `CCC(=O)NS(=O)(=O)c1cc(C(=O)Nc2cc(OC)c(OC)c(OC)c2)ccc1Cl`, the inhibition at 10 µM in the test with HCT-116 turned out to be 27.2%; in the test with MDA-MB-231, 19.6%; in the test on L3.6pl, 1.47%; in the test with SW480, 21.3%.

In the case of `COc1cc(NC(=O)c2ccc(Cl)c(S(=O)(=O)NC(=O)C=C(C)C)c2)cc(OC)c1OC`, the inhibition at 10 µM in the test on HCT-116 was 20.1%; in the test on MDA-MB-231, 22.3%; with L3.6pl, -7.12%; with SW480, 22.6%.

On to `NC(N)=NS(=O)(=O)c1ccc(NC(=O)c2ccc(Cl)c(S(N)(=O)=O)c2)cc1`, for which the inhibition at 10 µM in the test with HCT-116 came to 41.3%; with MDA-MB-231 it was 46.4%; in the test with L3.6pl, 11.1%; in the test with SW480 it was 27.3%.

As to `NS(=O)(=O)c1cc(C(=O)Nc2cccc(C(F)(F)F)c2)ccc1Cl`, the inhibition at 10 µM in the test with HCT-116 is 41.4%; in the test on MDA-MB-231, 29%; in the test on L3.6pl, 22.3%; with SW480 it was 42.9%.

Regarding `NS(=O)(=O)c1cc(C(=O)Nc2ccccc2C(F)(F)F)ccc1Cl`, the inhibition at 10 µM came to 45.4% in the test with HCT-116, 44.9% in the test with MDA-MB-231, 21.2% in the test on L3.6pl and 30.7% in the test on SW480.

`NS(=O)(=O)c1cc(C(=O)Nc2ccc(Cl)c(F)c2)ccc1Cl`: the inhibition at 10 µM amounted to 44.1% in the test on HCT-116, 43.7% in the test with MDA-MB-231, 26.4% in the test with L3.6pl and 48.1% in the test on SW480.

Take `NS(=O)(=O)c1cccc(C(=O)Nc2ccc([N+](=O)[O-])cc2Cl)c1`: the inhibition at 10 µM was found to be 15.1% with HCT-116, 43.2% with MDA-MB-231, 21.3% with L3.6pl and 44.1% with SW480.

Take `COc1cc(NC(=O)c2ccc(Cl)c(S(N)(=O)=O)c2)c(C(=O)O)cc1OC`: the inhibition at 10 µM was determined as 47.2% with HCT-116, 66.7% with MDA-MB-231, 11.8% in the test with L3.6pl and 30.2% in the test with SW480.

As to `C=C(C)C(=O)NS(=O)(=O)c1cc(C(=O)Nc2cc(OC)c(OC)c(OC)c2)ccc1Cl`, the inhibition at 10 µM is 30% in the test with HCT-116, 4.84% with MDA-MB-231, -11.3% with L3.6pl and 22.3% in the test on SW480.

`COc1cccc(C(=O)NS(=O)(=O)c2cc(C(=O)Nc3cc(OC)c(OC)c(OC)c3)ccc2Cl)c1`: the inhibition at 10 µM with HCT-116 was 21.3%; in the test on MDA-MB-231 it was 23.5%; with L3.6pl, -0.51%; with SW480, 22%.

Consider `NS(=O)(=O)c1cccc(C(=O)Nc2ccccc2C(F)(F)F)c1`, for which the inhibition at 10 µM in the test with HCT-116 was determined as 40.3%; in the test on MDA-MB-231, 42.8%; with L3.6pl, 21.9%; in the test with SW480, 24.8%.

With `NS(=O)(=O)c1cc(C(=O)Nc2ccc(N3CCOCC3)cc2)ccc1Cl`, the inhibition at 10 µM amounted to 39.3% in the test on HCT-116, 43.3% in the test on MDA-MB-231, 12.2% in the test with L3.6pl and 21.9% in the test on SW480.

`COc1ccc(CNC(=O)c2ccc(Cl)c(S(N)(=O)=O)c2)cc1`: the inhibition at 10 µM with HCT-116 was determined as 43.1%; in the test on MDA-MB-231, 54%; with L3.6pl, 29%; in the test on SW480, 16.2%.

Regarding `COc1cc(OC)cc(C(=O)NS(=O)(=O)c2cc(C(=O)Nc3cc(OC)c(OC)c(OC)c3)ccc2Cl)c1`, the inhibition at 10 µM in the test on HCT-116 is -2.37%; in the test with MDA-MB-231 it was 4.11%; in the test with L3.6pl it was -13.1%; in the test on SW480, 16.1%.

For the compound `COc1cc(NC(=O)c2cccc(S(N)(=O)=O)c2)cc(OC)c1`, the inhibition at 10 µM with HCT-116 stood at 47.1%; in the test on MDA-MB-231 it was 39.6%; in the test on L3.6pl, 22.2%; with SW480, 40.4%.

For the compound `NS(=O)(=O)c1cccc(C(=O)Nc2ccc(C(F)(F)F)cc2)c1`, the inhibition at 10 µM with HCT-116 came to 19.1%; with MDA-MB-231 it was 26.4%; in the test on L3.6pl, 18.1%; in the test with SW480, 38.1%.

For `COc1ccc(OC)c(NC(=O)c2cccc(S(N)(=O)=O)c2)c1`, the inhibition at 10 µM with HCT-116 is 46.4%; in the test with MDA-MB-231, 37%; with L3.6pl it was 20.5%; with SW480, 31.9%.

For `COc1cc(CNC(=O)c2ccc(Cl)c(S(N)(=O)=O)c2)cc(OC)c1OC`, the inhibition at 10 µM was determined as 34.3% with HCT-116, 44.4% with MDA-MB-231, 38.2% in the test with L3.6pl and 27.4% in the test on SW480.

As for `NS(=O)(=O)c1cccc(C(=O)Nc2cccnc2)c1`, the inhibition at 10 µM in the test with HCT-116 was found to be 8.11%; in the test with MDA-MB-231, 42.9%; with L3.6pl, 32.7%; with SW480, 28.3%.

With `NS(=O)(=O)c1cccc(C(=O)Nc2cccc(C(F)(F)F)c2)c1`, the inhibition at 10 µM came out at 39.7% with HCT-116, 27.2% in the test on MDA-MB-231, 9.27% in the test with L3.6pl and 34.4% in the test with SW480.

For `CN1CCN(c2ccc(NC(=O)c3ccc(Cl)c(S(N)(=O)=O)c3)cc2)CC1`, the inhibition at 10 µM with HCT-116 was found to be 40.5%; in the test with MDA-MB-231, 37.3%; in the test on L3.6pl it was 14.6%; in the test on SW480, 38.3%.

In the case of `COc1cccc(NC(=O)c2ccc(Cl)c(S(N)(=O)=O)c2)c1`, the inhibition at 10 µM was 43% in the test with HCT-116, 42.4% in the test on MDA-MB-231, 22.3% in the test on L3.6pl and 29.3% in the test with SW480.

Consider `NS(=O)(=O)c1cc(C(=O)Nc2ccc(F)c(Cl)c2)ccc1Cl`, for which the inhibition at 10 µM in the test with HCT-116 is 47.5%; in the test with MDA-MB-231, 41.5%; with L3.6pl, 30.2%; with SW480, 49.1%.

As for `COc1ccccc1NC(=O)c1ccc(Cl)c(S(N)(=O)=O)c1`, the inhibition at 10 µM was 37.3% with HCT-116, 19.8% with MDA-MB-231, 22.9% in the test with L3.6pl and 49.3% in the test with SW480.

For the compound `COc1ccc(OC)c(NC(=O)c2ccc(Cl)c(S(N)(=O)=O)c2)c1`, the inhibition at 10 µM stood at 28.2% in the test with HCT-116, 26.7% in the test on MDA-MB-231, 24.2% in the test on L3.6pl and 23.2% in the test with SW480.

With `COc1ccc(NC(=O)c2cccc(S(N)(=O)=O)c2)cc1`, the inhibition at 10 µM in the test with HCT-116 was 42.7%; in the test on MDA-MB-231, 32.3%; in the test with L3.6pl it was 23.9%; in the test on SW480, 38.4%.

Regarding `COc1cc(NC(=O)c2ccc(Cl)c(S(N)(=O)=O)c2)cc(OC)c1OC`, the inhibition at 10 µM with HCT-116 is 87.9%; in the test on MDA-MB-231 it was 93.3%; in the test with L3.6pl it was 42.1%; in the test with SW480, 82.2%.

As for `COc1cc(NC(=O)c2ccc(Cl)c(S(=O)(=O)NC(=O)c3c(OC)cccc3OC)c2)cc(OC)c1OC`, the inhibition at 10 µM in the test on HCT-116 worked out at 10.2%; with MDA-MB-231 it was 18.1%; with L3.6pl, 4.06%; in the test on SW480, 30.6%.

As for `COc1cc(NC(=O)c2ccc(Cl)c(S(=O)(=O)NC(=O)c3cccc([N+](=O)[O-])c3)c2)cc(OC)c1OC`, the inhibition at 10 µM in the test on HCT-116 was 3.74%; in the test on MDA-MB-231, 14.3%; with L3.6pl, -6.13%; in the test on SW480, 12.1%.

On to `COc1cc(NC(=O)c2ccc(Cl)c(S(=O)(=O)NC(C)=O)c2)cc(OC)c1OC`, for which the inhibition at 10 µM with HCT-116 was 27.2%; in the test on MDA-MB-231, 19.4%; in the test with L3.6pl, -15.2%; in the test on SW480 it was 19.5%.

Take `NS(=O)(=O)c1ccc(O)c(C(=O)Nc2ccc([N+](=O)[O-])cc2Cl)c1`: the inhibition at 10 µM was 64% in the test with HCT-116, 48.2% in the test with MDA-MB-231, 44.7% in the test with L3.6pl and -8.3% with SW480.

As to `COc1cc(NC(=O)c2ccc(Cl)c(S(N)(=O)=O)c2)cc(OC)c1`, the inhibition at 10 µM with HCT-116 is 42.5%; with MDA-MB-231, 31.8%; with L3.6pl, 26.3%; in the test with SW480, 27.2%.

With `COc1cc(NC(=O)c2ccc(Cl)c(S(=O)(=O)NC(=O)c3ccccc3)c2)cc(OC)c1OC`, the inhibition at 10 µM in the test with HCT-116 was 32.3%; in the test with MDA-MB-231, 2.05%; with L3.6pl it was -27.8%; in the test on SW480, 29.5%.

With `NS(=O)(=O)c1cc(C(=O)Nc2c(F)c(F)c(F)c(F)c2F)ccc1Cl`, the inhibition at 10 µM with HCT-116 is 34%; in the test with MDA-MB-231, 33.1%; in the test on L3.6pl it was 12.6%; in the test with SW480, 27.1%.
